Data as given in patent US20050009924A1 (priority 2003, published 2005).

What was measured:
human hepatoma G2 cells = experiment: Cytotoxicity assay (XTT colorimetric), Hep G2; type: cell-based; conditions: Homo sapiens, HepG2; 48 h of drug exposure
rat glioma C6 cells = experiment: Cytotoxicity assay (XTT colorimetric), C6 cells; type: cell-based; conditions: Rattus norvegicus, C6; 48 h of drug exposure
[1] = test system: transcriptional activity of hTERT; experiment: SEAP reporter assay of hTERT expression, PhTERT-SEAP (hTERT-BJ1); type: cell-based, human; conditions: Homo sapiens, hTERT-BJ1, read-out: Relative SEAP activity (%)
Outline: (§1)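 H1299 or hTERT-BJ1 cells stably carrying hTERT- or CMV-promoter–SEAP constructs (G418-selected), treated with compounds for 24 h at 37 °C. Media heated 65 °C for 10 min, mixed with diethanolamine buffer and 12 mM p-nitrophenyl phosphate; SEAP activity taken as the rate of A405 increase.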

[2] = test system: transcriptional activity of hTERT; experiment: SEAP reporter assay of hTERT expression, PhTERT-SEAP (H1299); type: cell-based, human; conditions: Homo sapiens, NCI-H1299, H1299, read-out: Relative SEAP activity (%)
Outline: as §1

[3] = MTT relative viability, PhTERT-SEAP (H1299) cells; conditions: human
Method: The tetrazolium reagent (MTT; 3-(4,5-di-methylthiazol)-2,5-diphenyl tetrazolium bromide, USB) was designed to yield a colored formazan upon metabolic reduction by viable cells. Approximately […] cells were plated onto each well of a 96-well plate and incubated in 5% CO2 at 37° C. for 24 h. To assess the in vitro cytotoxicity, each compound was dissolved in DMSO and prepared immediately before the experiments and was diluted into the complete medium before addition to cell cultures. Test compounds were then added to the culture medium for designated various concentrations. After 48 h, an amount of 25 μL of MTT was added to each well, and the samples were incubated at 37° C. for 4 h. A 100 μL solution of lysis buffer containing 20% SDS and 50% N,N-dimethylformamide was added to each well and incubated at 37° C. for another 16 h. The absorbency at 550 nm was measured using an ELISA reader.
Non small lung cancer cells H1299 (telomerase positive) were grown in RPMI 1640 media supplemented with 10% fetal bovine serum, 100 units/mL penicillin and 100 mg/mL streptomycin in a humidified atmosphere with 5% CO2 at 37° C. The hTERT immortalized hTERT-BJ1 (BD Biosciences Clontech)^39 were grown in DMEM media supplemented with 10% fetal calf serum, 100 units/mL penicillin and 100 mg/mL streptomycin, 1 mM sodium pyruvate, and 4 mM I-arginine in a humidified atmosphere with 5% CO2 at 37° C. Culture media were changed every 3 days. […] The stable clones derived from H1299 or hTERT-BJ1 were cultured using conditions that are similar to their parental cells.

[4] = MTT relative viability, PhTERT-SEAP (hTERT-BJ1) cells; conditions: human
[5] = test system: iron-induced lipid peroxidation in rat brain homogenates; experiment: Iron-induced lipid peroxidation in rat brain homogenates; conditions: for Inhibition of LP(10 mM): mean percent inhibition (Table 3); for LP (%) (10 mM): relative percentage of inhibition (Table 1)
[6] = hTERT-BJ1 cells, stable PhTERT-SEAP reporter clone

Compound	IC50 (human hepatoma G2 cells) [µM]	IC50 (rat glioma C6 cells) [µM]	melting point [°C]	Inhibition of LP(10 mM) ([5]; 10 mM)	activity at 2.1 µM [1] [%]	activity at 21 µM [1] [%]	activity at 210 µM [1] [%]	activity at 2.1 µM [2] [%]	activity at 21 µM [2] [%]	activity at 210 µM [2] [%]	viability at 48 h, 2.1 µM [3] [%]	viability at 48 h, 21 µM [3] [%]	viability at 48 h, 210 µM [3] [%]	viability at 48 h, 2.1 µM [4] [%]	viability at 48 h, 21 µM [4] [%]	viability at 48 h, 210 µM [4] [%]	LP (%) (10 mM) ([5]; 10 mM)	also measured
O=C(Oc1cccc2c1C(=O)c1cccc(OC(=O)c3ccccc3)c1C2=O)c1ccccc1 [IIIe, 1,5-Bis(benzoyloxy)-anthraquinone]	47.7 ± 5.5	38.7 ± 3.6	336 to 338	−50 ± 1.9^ %	–	–	–	–	–	–	–	–	–	–	–	–	–	activity at 2.2 µM [1]: 137 ± 10%; activity at 22 µM [1]: 122 ± 9.6%; activity at 220 µM [1]: 84 ± 21.7%; activity at 2.2 µM [2]: 88 ± 10%; activity at 22 µM [2]: 94 ± 8%; activity at 220 µM [2]: 86 ± 4.7%; viability at 48 h, 2.2 µM [3]: 99 ± 7.3%; viability at 48 h, 22 µM [3]: 60 ± 11.9%; viability at 48 h, 220 µM [3]: 33 ± 4.7%; viability at 48 h, 2.2 µM [4]: 103 ± 6.5%; viability at 48 h, 22 µM [4]: 87 ± 9.8%; viability at 48 h, 220 µM [4]: 51 ± 4.6%
Cc1ccccc1C(=O)Oc1cccc2c1C(=O)c1cccc(OC(=O)c3ccccc3C)c1C2=O [IIIj, 1,5-Bis(2-toluoyloxy)-anthraquinone]	21.6 ± 2.2	25.1 ± 2.8	262 to 263	23 ± 1.1%	129 ± 13	120 ± 24	94 ± 27.1	97 ± 4.4	91 ± 7.4	90 ± 4.2	72 ± 4.9	36 ± 9.7	45 ± 8	118 ± 11.6	82 ± 8.5	39 ± 13	–	–
Cc1cccc(C(=O)Oc2cccc3c2C(=O)c2cccc(OC(=O)c4cccc(C)c4)c2C3=O)c1 [IIIk, 1,5-Bis(3-toluoyloxy)-anthraquinone]	18.1 ± 1.5	30.1 ± 3.3	269 to 270	−32 ± 1.5^ %	141 ± 10.5	124 ± 15.6	86 ± 17.2	104 ± 5.4	116 ± 12.8	110 ± 16.4	26 ± 3.7	28 ± 5	29 ± 3.3	98 ± 9.4	54 ± 7.5	47 ± 4.8	–	–
Cc1ccc(C(=O)Oc2cccc3c2C(=O)c2cccc(OC(=O)c4ccc(C)cc4)c2C3=O)cc1 [IIIl, 1,5-Bis(4-toluoyloxy)-anthraquinone]	9.3 ± 0.9	37.6 ± 4.1	331 to 332	33 ± 1.2%	130 ± 8.8	126 ± 13.3	99 ± 15.8	98 ± 1.1	95 ± 4.3	95 ± 8.9	61 ± 5.8	33 ± 2.8	32 ± 5.7	102 ± 13.9	98 ± 6.3	56 ± 6.2	–	–
O=C(Cc1ccccc1)Oc1cccc2c1C(=O)c1cccc(OC(=O)Cc3ccccc3)c1C2=O [IIIm, 1,5-Bis(phenylacetyloxy)-anthraquinone]	9 ± 1.5	39.1 ± 6.2	202 to 203	−1 ± 0.2%	129 ± 4.5	125 ± 4.3	100 ± 17.3	98 ± 0.3	101 ± 6.8	142 ± 14	91 ± 4.2	53 ± 2.3	30 ± 1.6	106 ± 9	97 ± 8.2	64 ± 10.2	–	–
O=C(CCc1ccccc1)Oc1cccc2c1C(=O)c1cccc(OC(=O)CCc3ccccc3)c1C2=O [IIIn, 1,5-Bis(phenylpropionyloxy)-anthraquinone]	0.4 ± 0.1	40.1 ± 5.5	219 to 220	>100%	–	–	–	–	–	–	–	–	–	–	–	–	–	activity at 2 µM ([1]; 2.0 μM): 126 ± 6.1%; activity at 20 µM ([1]; 20 μM): 124 ± 13.4%; activity at 200 µM ([1]; 200 μM): 110 ± 10.5%; activity at 2 µM ([2]; 2.0 μM): 94 ± 2.5%; activity at 20 µM ([2]; 20 μM): 98 ± 4.7%; activity at 200 µM ([2]; 200 μM): 89 ± 5.2%; viability at 48 h, 2 µM [3]: 111 ± 0.8%; viability at 48 h, 20 µM [3]: 101 ± 4.3%; viability at 48 h, 200 µM [3]: 54 ± 4.1%; viability at 48 h, 2 µM [4, 6]: 111 ± 7.3%; viability at 48 h, 20 µM [4, 6]: 106 ± 6.6%; viability at 48 h, 200 µM [4, 6]: 76 ± 7.2%; Inhibition (%) ([5]; 0.01 mM): 50 ± 0.8%; Inhibition (%) ([5]; 0.1 mM): 95 ± 2.0%; Inhibition (%) ([5]; 1 mM): >100%; Inhibition (%) ([5]; 10 mM): >100%
CCSc1cccc2c1C(=O)c1cccc(SCC)c1C2=O [IIa, 1,5-Bis(ethylthio)-anthraquinone]	12.2 ± 1.1	0.02 ± 0.01	235 to 236	–	–	–	–	–	–	–	–	–	–	–	–	–	83 ± 2.2	activity at 3 µM ([1]; 3.0 μM): 109 ± 22.4%; activity at 30 µM ([1]; 30 μM): 110 ± 14.3%; activity at 300 µM ([1]; 300 μM): 104 ± 20.6%; activity at 3 µM ([2]; 3.0 μM): 134 ± 14.4%; activity at 30 µM ([2]; 30 μM): 111 ± 7.7%; activity at 300 µM ([2]; 300 μM): 99 ± 14.3%; viability at 48 h, 3 µM [3]: 111 ± 2.8%; viability at 48 h, 30 µM [3]: 44 ± 7.3%; viability at 48 h, 300 µM [3]: 25 ± 2.3%; viability at 48 h, 3 µM [4]: 112 ± 9.2%; viability at 48 h, 30 µM [4]: 98 ± 12.3%; viability at 48 h, 300 µM [4]: 34 ± 18.1%
CCCSc1cccc2c1C(=O)c1cccc(SCCC)c1C2=O [IIc, 1,5-Bis(propylthio)-anthraquinone]	75.1 ± 2.5	29.9 ± 2.1	232 to 233	–	–	–	–	–	–	–	–	–	–	–	–	–	15 ± 1.5	activity at 2.8 µM ([1]; 2.8 μM): 132 ± 21%; activity at 28 µM ([1]; 28 μM): 110 ± 13.2%; activity at 280 µM ([1]; 280 μM): 122 ± 14.3%; activity at 2.8 µM ([2]; 2.8 μM): 73 ± 5.4%; activity at 28 µM ([2]; 28 μM): 29 ± 2.5%; activity at 280 µM ([2]; 280 μM): 17 ± 13.9%; viability at 48 h, 2.8 µM [3]: 96 ± 5.9%; viability at 48 h, 28 µM [3]: 44 ± 2.5%; viability at 48 h, 280 µM [3]: 25 ± 2.4%; viability at 48 h, 2.8 µM [4]: 103 ± 6.3%; viability at 48 h, 28 µM [4]: 97 ± 3%; viability at 48 h, 280 µM [4]: 39 ± 4.9%
O=C1c2cccc(SCCCCCCO)c2C(=O)c2cccc(SCCCCCCO)c21 [IIe, 1,5-Bis(hydroxyhexylthio)-anthraquinone]	49.3 ± 2.1	31.7 ± 1.6	195 to 196	–	140 ± 9.7	128 ± 14.4	75 ± 17.4	110 ± 6.1	100 ± 5.5	68 ± 5.9	99 ± 6.2	94 ± 3.9	36 ± 4.2	99 ± 6.2	70 ± 2.2	40 ± 4.7	54 ± 1.9	–
Nc1cccc(Sc2cccc3c2C(=O)c2cccc(Sc4cccc(N)c4)c2C3=O)c1 [IIg, 1,5-Bis(m-aminophenylthio)-Anthraquinone]	21.5 ± 1.2	26.3 ± 2.8	292 to 293	–	–	–	–	–	–	–	–	–	–	–	–	–	6 ± 0.9	activity at 2.2 µM [1]: 118 ± 9.9%; activity at 22 µM [1]: 41 ± 9.5%; activity at 220 µM [1]: 8 ± 30.6%; activity at 2.2 µM [2]: 106 ± 7.6%; activity at 22 µM [2]: 109 ± 11.7%; activity at 220 µM [2]: 101 ± 7.3%; viability at 48 h, 2.2 µM [3]: 92 ± 3.5%; viability at 48 h, 22 µM [3]: 68 ± 1.9%; viability at 48 h, 220 µM [3]: 32 ± 4.9%; viability at 48 h, 2.2 µM [4]: 104 ± 5.1%; viability at 48 h, 22 µM [4]: 9 ± 3.4%; viability at 48 h, 220 µM [4]: 4 ± 1.5%
